Experimental data: ChEMBL document CHEMBL4196002, “Design, synthesis, mechanistic and histopathological studies of small-molecules of novel indole-2-carboxamides and pyrazino[1,2-a]indol-1(2H)-ones as potential anticancer agents effecting the reactive oxygen species production” (Eur J Med Chem, 2018)

What was measured:
[1] = Antioxidant activity assessed as DPPH radical scavenging activity at 10 uM after 30 mins dark incubation; assay type: functional
[2] = Antioxidant activity assessed as DPPH radical scavenging activity at 100 uM after 30 mins dark incubation; assay type: functional
[3] = Antioxidant activity assessed as DPPH radical scavenging activity at 50 uM after 30 mins dark incubation; assay type: functional
MIA PaCa-2 = test: Antiproliferative activity human MIAPaCa2 cells after 48 hrs by propidium iodide staining-based fluorescence assay; assay type: functional, cell-based; settings: MIA PaCa-2, 48 h
PC-3 = test: Antiproliferative activity human PC3 cells after 48 hrs by propidium iodide staining-based fluorescence assay; assay type: functional, cell-based; settings: PC-3, 48 h
[4] = Inhibition of ROS generation in human PMN at 12.5 ug/ml after 50 mins by luminol-based chemiluminescence assay relative to control; assay type: functional
[5] = Inhibition of ROS generation in human PMN at 1.56 ug/ml after 50 mins by luminol-based chemiluminescence assay relative to control; assay type: functional
Homo sapiens = species on record: Homo sapiens; test: (§1) Inhibition of ROS generation in human PMN after 50 mins by luminol-based chemiluminescence assay; assay type: functional
[6] = as §1; assay type: functional
HT-29 = test: Antiproliferative activity human HT-29 cells after 48 hrs by propidium iodide staining-based fluorescence assay; assay type: functional, cell-based; settings: HT-29, 48 h
[7] = Inhibition of ROS generation in human PMN at 6.25 ug/ml after 50 mins by luminol-based chemiluminescence assay relative to control; assay type: functional
MCF7 = test: Antiproliferative activity human MCF7 cells after 48 hrs by propidium iodide staining-based fluorescence assay; assay type: functional, cell-based; settings: MCF7, 48 h
[8] = Inhibition of ROS generation in human PMN at 0.78 ug/ml after 50 mins by luminol-based chemiluminescence assay relative to control; assay type: functional
A549 = test: Antiproliferative activity human A549 cells after 48 hrs by propidium iodide staining-based fluorescence assay; assay type: functional, cell-based; settings: A549, 48 h
[9] = Cytotoxicity against human MCF10A cells assessed as cell viability at 50 uM after 96 hrs by MTT assay relative to control; assay type: cell-based, MCF-10A; settings: read-out: Activity
[10] = Inhibition of ROS generation in human PMN at 3.13 ug/ml after 50 mins by luminol-based chemiluminescence assay relative to control; assay type: functional
[11] = biological target: Epidermal growth factor receptor (Homo sapiens, UniProt P00533); test: Inhibition of His6-tagged EGFR (unknown origin) cytoplasmic domain expressed in baculovirus infected Sf9 insect cells after 10 mins followed by addition of ATP-MgCl2 and measured after 1 hr by time-resolved fluorometric analysis
Tubulin (Homo sapiens) = Tubulin (Homo sapiens) (UniProt P68371+Q9H4B7+P0DPH7+P68366+Q13509+Q71U36+P04350+Q3ZCM7+P07437+P68363+Q9BQE3+Q6PEY2+Q13885+Q9BVA1+Q9BUF5); test: Inhibition of tubulin (unknown origin) polymerization assessed as tubulin assembly rate by fluorescence assay; assay type: protein-complex assay
[12] = biological target: Serine/threonine-protein kinase B-raf (Mus musculus, UniProt P28028, V600E); test: Inhibition of mouse full-length GST-tagged BRAF V600E mutant using recombinant human full length N-terminal His-tagged MEK1 as substrate preincubated for 60 mins followed by substrate addition and measured after 25 mins by ELISA
Sequence of Serine/threonine-protein kinase B-raf (P28028 whole entry, looked up, stated change not applied): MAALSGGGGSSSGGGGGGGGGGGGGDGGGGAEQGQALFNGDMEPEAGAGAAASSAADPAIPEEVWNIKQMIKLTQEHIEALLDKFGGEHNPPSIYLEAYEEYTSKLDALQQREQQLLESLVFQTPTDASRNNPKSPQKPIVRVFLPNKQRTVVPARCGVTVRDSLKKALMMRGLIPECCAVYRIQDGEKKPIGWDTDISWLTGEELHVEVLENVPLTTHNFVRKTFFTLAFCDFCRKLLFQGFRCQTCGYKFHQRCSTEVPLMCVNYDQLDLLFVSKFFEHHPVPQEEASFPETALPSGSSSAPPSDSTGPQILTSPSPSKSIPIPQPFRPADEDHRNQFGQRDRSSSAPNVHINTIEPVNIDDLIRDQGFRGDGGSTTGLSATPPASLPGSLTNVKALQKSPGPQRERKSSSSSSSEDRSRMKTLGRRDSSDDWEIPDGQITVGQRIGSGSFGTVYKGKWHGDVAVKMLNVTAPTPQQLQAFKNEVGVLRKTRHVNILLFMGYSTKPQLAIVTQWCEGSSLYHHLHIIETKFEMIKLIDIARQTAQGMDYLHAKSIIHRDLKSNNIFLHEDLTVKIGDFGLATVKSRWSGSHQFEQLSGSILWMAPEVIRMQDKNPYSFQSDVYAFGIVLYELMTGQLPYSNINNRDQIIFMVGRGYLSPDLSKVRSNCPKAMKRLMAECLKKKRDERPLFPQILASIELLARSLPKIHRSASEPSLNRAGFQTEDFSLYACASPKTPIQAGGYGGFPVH

Sequence of Epidermal growth factor receptor (P00533 whole entry, the tested form may be a part): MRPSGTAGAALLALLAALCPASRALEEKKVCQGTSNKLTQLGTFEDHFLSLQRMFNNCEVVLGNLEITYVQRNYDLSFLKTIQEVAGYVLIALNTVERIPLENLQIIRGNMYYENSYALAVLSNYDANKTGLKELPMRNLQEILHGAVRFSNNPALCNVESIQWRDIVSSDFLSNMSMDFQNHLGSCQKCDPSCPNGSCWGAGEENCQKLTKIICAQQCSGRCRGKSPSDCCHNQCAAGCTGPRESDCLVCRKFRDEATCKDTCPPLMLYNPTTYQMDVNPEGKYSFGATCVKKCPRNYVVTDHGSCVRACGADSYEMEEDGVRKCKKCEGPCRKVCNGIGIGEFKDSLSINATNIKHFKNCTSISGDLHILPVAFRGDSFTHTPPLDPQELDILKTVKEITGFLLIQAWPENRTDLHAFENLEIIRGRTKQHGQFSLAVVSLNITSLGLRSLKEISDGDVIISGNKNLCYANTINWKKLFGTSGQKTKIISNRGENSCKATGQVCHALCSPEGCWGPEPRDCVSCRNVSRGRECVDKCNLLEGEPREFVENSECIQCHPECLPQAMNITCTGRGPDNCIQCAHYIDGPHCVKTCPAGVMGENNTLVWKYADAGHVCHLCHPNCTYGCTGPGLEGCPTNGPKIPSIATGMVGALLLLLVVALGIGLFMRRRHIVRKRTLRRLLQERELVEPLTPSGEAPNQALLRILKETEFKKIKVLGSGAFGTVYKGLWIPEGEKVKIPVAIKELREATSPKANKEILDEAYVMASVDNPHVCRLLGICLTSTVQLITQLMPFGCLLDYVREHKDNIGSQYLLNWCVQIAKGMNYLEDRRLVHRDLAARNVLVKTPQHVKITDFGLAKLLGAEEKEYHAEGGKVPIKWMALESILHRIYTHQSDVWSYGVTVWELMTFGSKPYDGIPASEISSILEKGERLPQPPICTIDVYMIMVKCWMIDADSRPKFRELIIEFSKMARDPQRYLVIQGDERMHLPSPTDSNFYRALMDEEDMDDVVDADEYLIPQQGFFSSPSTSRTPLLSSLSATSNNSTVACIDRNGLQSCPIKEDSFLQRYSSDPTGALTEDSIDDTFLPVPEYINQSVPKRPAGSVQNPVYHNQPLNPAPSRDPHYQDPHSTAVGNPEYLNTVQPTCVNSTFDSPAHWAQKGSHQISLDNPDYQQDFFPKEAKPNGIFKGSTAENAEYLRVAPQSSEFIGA

SMILES	Activity [1] [%]	Activity [2] [%]	Activity [3] [%]	IC50 (MIA PaCa-2) [µM]	IC50 (PC-3) [µM]	inhibition at 12.5 µg/mL [4] [%]	inhibition at 1.56 µg/mL [5] [%]	inhibition (Homo sapiens)	IC50 [6] [µM]	IC50 (HT-29) [µM]	inhibition at 6.25 µg/mL [7] [%]	IC50 (MCF7) [µM]	inhibition at 0.78 µg/mL [8] [%]	IC50 (A549) [µM]	viability at 96 h, 50 µM [9] [%]	inhibition at 3.13 µg/mL [10] [%]	IC50 [11] [nM]	Activity (Tubulin (Homo sapiens)) [a.u.]	IC50 [12] [nM]
Cc1c(C)c2c(c(C)c1O)CCC(C)(C(=O)O)O2 (stereo not given)	77.6	95.2	82.5	–	–	–	–	–	–	–	–	–	–	–	–	–	–	–	–
CCc1c(C(=O)NC(CO)Cc2ccc(Cl)cc2)[nH]c2ccc(Cl)cc12 (stereo not given)	41.4	79.9	59.3	36	17.8	74	28	Dose-dependent effect	11.8	34.7	58	35.4	22	29.5	92	43	–	–	–
CCc1c(C(=O)NC(CO)Cc2ccccc2)[nH]c2ccc(Br)cc12 (stereo not given)	49.2	78.5	67.4	5.5	5.9	67	31	Dose-dependent effect	10.6	6.5	55	4.7	19	4.8	85	45	–	–	–
O=C(NC(CO)Cc1ccccc1)c1cc2cc(Cl)ccc2[nH]1 (stereo not given)	50.2	77.5	61.2	2.6	2.4	77	33	Dose-dependent effect	11.3	2.4	60	1.4	25	1.9	89	48	800	2420	4800
CCc1c2cc(Cl)ccc2n2cc(Cc3ccc(Cl)cc3)[nH]c(=O)c12	50.4	84.5	70.1	33.7	15.8	83	37	Dose-dependent effect	7.77	27.8	68	26.5	25	27.9	90	52	–	–	–
CCc1c(C(=O)NC(CO)Cc2ccccc2)[nH]c2ccc(C(F)(F)F)cc12 (stereo not given)	43.4	78	61.7	1.3	1.1	79	31	Dose-dependent effect	9.7	1.9	62	1.1	26	1.5	80	47	900	2650	1000
CC(=O)Oc1ccccc1C(=O)O [ASPIRIN]	–	–	–	–	–	92	46	–	9.78	–	85	–	33	–	–	63	–	–	–
